Measurements: patent publication US20210059995A1, “Composition for Protecting Cornea” (Kyoto University, priority 2017, published 2021)

Tests used:
[1] = system: rabbit corneal endothelial cells; assay: Cell morphology (phase-contrast) of cultured rabbit corneal endothelial cells under antimycin, oligomycin or glucose deprivation; assay type: cell-based; conditions: compound 50 μM
Description: (§1) Whole eyeballs of Japanese white rabbits (Funakoshi Corporation) were cut along corneal limbus with a razor blade and the corneas were isolated. The corneal endothelial cells were mechanically scraped off and collected with a crescent knife. Primary cultures were prepared in a DMEM with 10% fetal bovine serum and 2 ng/ml bFGF. The sub-confluent cells were treated with trypsin and collected, then plated on 12-well plates at the equal density of 4×10^4 cells/well and cultured in the same medium for 24 hours. The cells were subsequently cultured in the following eight different conditions: (1) control (the medium+DMSO), (2) the medium+KUS121 (50 μM), (3) the medium+antimycin (20 μM), (4) the medium+antimycin (20 μM)+KUS121 (50 μM), (5) the medium+oligomycin (10 μM), (6) the medium+oligomycin (10 μM)+KUS121 (50 μM), (7) DMEM with 2 ng/ml bFGF (non-glucose); and (8) DMEM with 2 ng/ml bFGF (non-glucose)+KUS121 (50 μM).
After the addition of the agents, sequential phase-contrast images of the cultured corneal endothelial cells were obtained.

[2] = system: rabbit corneal endothelial cells; assay: Intracellular ATP concentration (luciferase assay) in cultured rabbit corneal endothelial cells; assay type: cell-based; conditions: compound 50 μM, FIG. 3
Description: as §1
The corneal endothelial cells cultured in the presence of the agents (P=1) were washed with PBS(−), treated with trypsin, suspended in the medium (DMEM with 10% fetal bovine serum and 2 ng/ml bFGF), and counted. Then 2.5×10^4 cells were centrifuged, suspended in PBS(−), and dispensed into 5 wells of a 96-well plate at the density of 5×10^3 cells/well. The cells were subjected to a luciferase assay (“Cell” ATP Assay reagent, TOYO B-Net CO., LTD.). The fluorescence intensities were measured as relative intracellular ATP concentrations using a luminometer.

[3] = system: immortalized human corneal endothelial cells (iHCECs); assay: Cell morphology and apoptosis of thapsigargin-treated immortalized human corneal endothelial cells by phase-contrast microscopy; assay type: cell-based; conditions: 10 μM thapsigargin for 8 hours, compound 10, 25, 50 or 100 μM with 24 hours pretreatment, FIG. 4
Description: Corneas for research were imported from SightLife™ (Seattle, Wash.). The cornea endothelial cells were stripped from the corneas with Descemet's membranes and immersed in a corneal preservation solution (Optisol-GS, Bausch & Lomb Incorporated). The cornea endothelial cells were treated with collagenase and collected. The cells were cultured in a conditioned medium which was prepared by culturing 3T3 cells in OptiMEM (Gibco, 3195070) with 10% fetal bovine serum (FBS) for 24 hours and then adding 10 μM SB203580 (Funakoshi, 13067) and 1 μM SB431542 (Wako, 192-16541) to the culture medium.
The corneal endothelial cells were immortalized by the following procedures. SV40 large T antigen and hTERT genes were amplified by PCR, and introduced into a lentiviral vector (pLenti6.3-V5-TOPO; Life Technologies Inc.). The lentiviral vector and three helper plasmids (pLP1, pLP2, pLP/VSVG; Life Technologies Inc.) were transfected into 293T cells (RCB2202; Riken Bioresource Center, Ibaraki, Japan) with a transfection reagent (Fugene HD; Promega Corp., Madison, Wis.). The culture supernatant containing the virus was collected 48 hours after the transfection and added to the culture medium of the cornea endothelial cells with 5 μg/ml of Polybrene, thereby the SV40 large T antigen and hTERT genes were introduced into the cells. […]

[4] = system: immortalized human corneal endothelial cells (iHCECs); assay: Western blot analysis of cleaved caspase 3 and PARP in thapsigargin-treated immortalized human corneal endothelial cells; assay type: cell-based; conditions: 10 μM thapsigargin for 8 hours, compound 10, 25, 50 or 100 μM, FIG. 5
Description: The medium was changed to the medium containing 10 μM thapsigargin (WAKO, 209-17281) and KUS121 (10 μM, 25 μM, 50 μM, or 100 μM), and the cells were cultured for 8 hours. Medium: DMEM+10% FBS+1% P/S
After the observation of the morphology, western blot analysis was performed by the following procedures.
The media were collected from each well on ice, the cells were washed twice with 1×PBS(−), and the washings were collected. In order to collect suspended cells and dead cells, the collected media and washings were centrifuged at 4° C., 800 g, for 12 minutes, the supernatants were discarded and the pellets were obtained. Protein extraction buffers (RIPA; 50 mM Tris-HCl (pH 7.4), 150 mM NaCl, 1 mM EDTA, 0.1% SDS, 0.5% DOC, 1% NP-40) were added to the washed cells on ice. The cells were suspended together with the pellets of the suspended cells and dead cells. […]
The protein extracts (7 μg each) were separated by SDS-PAGE and transferred to a nitrocellulose membrane. […] The signals were detected by Chemi Lumi ONE Ultra (NACALAI TESQUE, INC., 11644-40). The intensities of the detected bands were analyzed by luminescent image analyzer LAS-4000 mini (Fujifilm Corporation) and ImageQuant™ software (GE Healthcare).

rabbit corneas [5] = assay: Rabbit corneas preserved in Optisol-GS: HE-staining microscopic findings and central corneal thickness; conditions: Optisol-GS at 4° C., 1-4 weeks, KUS121 50 μM, KUS187 20 μM; for swelling of corneal endothelial cells during preservation: control swelled at week 1; for swelling of corneal endothelial cells during preservation / swelling of corneal stroma during preservation: FIG. 6; for swelling of corneal stroma during preservation: control swelled at week 3; for corneal epitheliums and cornea thicknesses versus control group: especially at week 3 or later, FIG. 6, 7
Description: (§2) Japanese white rabbits were euthanized, whole eyeballs were excised, and sclerocorneal preparations were prepared by using a razor blade. Each four sclerocorneal preparations were preserved in the following preservation solutions at 4° C. for 4 weeks; (1) Optisol-GS (control), (2) Optisol-GS+KUS121 (50 μM), or (3) Optisol-GS+KUS187 (20 μM). The tissues were sequentially embedded and sectioned.
The tissue sections were stained with HE-staining and observed by microscopy. The images were compared over time among the preservation conditions (FIG. 6). Microscopic images of the sections including the central parts of the corneas were obtained and the central corneal thicknesses were measured and compared over time among the preservation conditions (FIG. 7). In the corneas preserved in Optisol-GS (control), the corneal endothelial cells swelled at week 1 and the corneal stroma swelled at week 3.

[6] = system: rabbit corneal epithelial cells; assay: Rabbit corneas preserved in Optisol-GS: apoptosis of corneal epithelial cells by TUNEL assay; conditions: Optisol-GS at 4° C., 1-4 weeks; KUS121 50 μM, KUS187 20 μM; FIG. 8-10
Description: as §2
The tissue sections were fluorescently stained by TUNEL method and observed by confocal microscopy. Images of the epithelial layers around the centers of the corneas were obtained in three different fields (FIG. 8). […] The total corneal epithelial cells stained with PI and the TUNEL-positive cells were counted and the percentages of the TUNEL-positive cells were calculated. The percentages were compared over time among the preservation conditions (FIG. 10). The TUNEL-positive apoptotic cells were increased in the corneal epithelial cells of the control group after week 1. The apoptosis was suppressed in the KUS121 and KUS187 groups.

[7] = system: rabbit corneal endothelial cells; assay: Rabbit corneas preserved in Optisol-GS: corneal endothelia by immunofluorescence staining of Na+/K+ ATPase; conditions: Optisol-GS at 4° C., from week 1; KUS121 50 μM, KUS187 20 μM; FIG. 11
Description: as §2
The tissue sections were fluorescently stained with anti-Na+/K+ ATPase antibody, the corneal endothelia around the centers of the corneas were observed by indirect immunofluorescence microscopy, and the images were compared over time among the preservation conditions (FIG. 11).

rabbit corneas [8] = assay: Rabbit corneas preserved in Optisol-GS: transmission electron microscopy; conditions: corneas preserved for one week in Optisol-GS at 4° C., compound 50 μM, FIG. 13
Description: as §2
Corneas preserved for one week were immersed in 0.1 M phosphate buffer containing 2% glutaraldehyde at 4° C. for prefixation, in 0.1 M phosphate buffer at 4° C. overnight for washing, and in 2% aqueous osmium solution at 4° C. for 3 hours for postfixation. For dehydration the corneas were successively immersed in ethanol solutions of high concentrations (50, 70, 90, 100, 100, and 100%) at 4° C. (50%) or a room temperature for 15 minutes. For substitution the corneas were immersed in propylene oxide at a room temperature for 45 minutes and then in a mixture of propylene oxide and epoxy resin at a room temperature for 1.5 hours. For embedding the samples and epoxy resin were put into capsules and cured at 60° C. for 48 hours. Then 80-90 nm sections were prepared by using an ultramicrotome and put on 200 meshes. The sections were stained with 2% uranyl acetate and lead and reinforced by carbon deposition (reinforcement of sections against electron beams). […]

Row | Compound | death of corneal endothelial cells caused by antimycin ([1]; antimycin 20 μM, 28 hours after addition of the agents, FIG. 1) | death of corneal endothelial cells caused by glucose deprivation ([1]; cultured without glucose, 96 hours, FIG. 2) | death of corneal endothelial cells caused by oligomycin ([1]; oligomycin 10 μM, 28 hours after addition of the agents, FIG. 1) | decrease of intracellular ATP concentration in the absence of glucose ([2]; absence of glucose for 96 hours) | decrease of intracellular ATP concentration caused by antimycin ([2]; antimycin 20 μM for 27 hours) | decrease of intracellular ATP concentration caused by oligomycin ([2]; oligomycin 10 μM for 27 hours) | deformation of the cells (cell damage) caused by thapsigargin [3] | band of cleaved caspase 3 (about 17 kDa) induced by thapsigargin [4] | swelling of corneal endothelial cells during preservation (rabbit corneas [5]) | swelling of corneal stroma during preservation (rabbit corneas [5]) | corneal epitheliums and cornea thicknesses versus control group (rabbit corneas [5]) | TUNEL-positive cells among corneal epithelial cells versus control group [6] | corneal endothelial cells (Na+/K+ ATPase staining) versus control group [7] | swelling of the corneal stroma and the corneal endothelial cells (electron microscopy) (rabbit corneas [8]) | vacuolization of the corneal epithelial cells and loss of microvilli (rabbit corneas [8])
1 | Cc1cc(F)ccc1-c1ccc(N=Nc2cc(S(=O)(=O)[O-])c3ccccc3c2N)cn1.[Na+] [KUS121, 4-amino-3-[6-(4-fluoro-2-methylphenyl)pyridine-3-ylazo]naphthalene-1-sulfonic acid sodium salt] | the cell death was suppressed | the cell death was suppressed | the cell death was suppressed | the decrease was suppressed | the decrease was suppressed | the decrease was suppressed | the deformation was suppressed | hardly detected | the cell swelling was suppressed until week 2 | the corneal stroma swelling was kept mild until week 4 | maintained better | fewer through the test period than in the control group | maintained better | observed in the control, but not in the corneas preserved in a solution containing KUS121 | observed in the control, but not in the corneas preserved in a solution containing KUS121
2 | CCCCOc1c(C=O)cc(C)cc1-c1ccc(N=Nc2cc(S(=O)(=O)[O-])c3ccccc3c2N)cn1.[Na+] [KUS187, 4-amino-3-[6-(3-formyl-2-butoxy-5-methylphenyl)pyridine-3-ylazo]naphthalene-1-sulfonic acid sodium salt] |  |  |  |  |  |  |  |  | the cell swelling was suppressed until week 2 | the corneal stroma swelling was kept mild until week 4 | maintained better | fewer through the test period than in the control group | maintained better |  | 
